# Laboratory results published in PMC8791611 (Science Advances, 2022).
# T1: BmrA (Bacillus subtilis, UniProt O06967, E504A)
# T1 sequence (O06967 1-589 E504A): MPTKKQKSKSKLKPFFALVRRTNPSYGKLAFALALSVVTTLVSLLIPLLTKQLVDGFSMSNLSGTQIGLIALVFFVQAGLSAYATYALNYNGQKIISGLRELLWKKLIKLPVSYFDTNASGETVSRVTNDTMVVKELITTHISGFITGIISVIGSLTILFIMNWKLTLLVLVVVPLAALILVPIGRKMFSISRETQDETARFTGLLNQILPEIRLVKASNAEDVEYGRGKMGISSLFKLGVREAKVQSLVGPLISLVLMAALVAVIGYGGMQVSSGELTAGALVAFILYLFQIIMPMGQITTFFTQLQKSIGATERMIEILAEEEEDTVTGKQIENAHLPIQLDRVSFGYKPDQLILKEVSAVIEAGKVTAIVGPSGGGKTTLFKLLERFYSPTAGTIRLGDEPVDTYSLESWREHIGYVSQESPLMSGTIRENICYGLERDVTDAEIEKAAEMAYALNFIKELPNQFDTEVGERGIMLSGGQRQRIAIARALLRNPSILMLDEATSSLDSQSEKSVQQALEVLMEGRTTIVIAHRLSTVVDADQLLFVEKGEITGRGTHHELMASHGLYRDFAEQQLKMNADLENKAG
# T2: BmrA (Bacillus subtilis, UniProt O06967)
# T2 sequence (O06967 1-589): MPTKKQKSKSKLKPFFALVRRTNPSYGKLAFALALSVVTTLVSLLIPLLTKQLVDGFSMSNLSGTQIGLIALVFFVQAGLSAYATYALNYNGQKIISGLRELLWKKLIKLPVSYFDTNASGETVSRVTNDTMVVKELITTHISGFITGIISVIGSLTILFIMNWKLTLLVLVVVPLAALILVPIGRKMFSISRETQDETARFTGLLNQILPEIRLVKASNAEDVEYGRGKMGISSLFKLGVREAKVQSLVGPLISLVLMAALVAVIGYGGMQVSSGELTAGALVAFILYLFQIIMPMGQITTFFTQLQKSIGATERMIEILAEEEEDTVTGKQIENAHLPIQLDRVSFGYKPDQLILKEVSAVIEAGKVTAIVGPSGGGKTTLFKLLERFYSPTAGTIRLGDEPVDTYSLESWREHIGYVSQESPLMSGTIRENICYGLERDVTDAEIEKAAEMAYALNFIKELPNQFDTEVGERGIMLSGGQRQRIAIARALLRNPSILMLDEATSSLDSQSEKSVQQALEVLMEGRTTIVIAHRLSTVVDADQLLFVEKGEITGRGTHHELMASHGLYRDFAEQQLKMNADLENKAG
# Tests used:
# [1] = molecular target: T1, BmrA; experiment: cryo-EM structure; format: binding
# [2] = molecular target: T2, BmrA; experiment: intrinsic fluorescence binding, purified WT BmrA in DDM
# [3] = molecular target: the molecule itself; experiment: crystal structure
Molecule,Kd [1],Kd [2],binding result [3]
CC/N=c1\cc2oc3cc(NCC)c(C)cc3c(-c3ccccc3C(=O)OCC)c-2cc1C [R6G],3.3 ± 0.7 µM,4.8 ± 0.9 µM,
"BmrA E504A mutant (Bacillus subtilis multidrug ABC exporter, homodimeric) (natural protein) MPTKKQKSKSKLKPFFALVRRTNPSYGKLAFALALSVVTTLVSLLIPLLTKQLVDGFSMSNLSGTQIGLIALVFFVQAGLSAYATYALNYNGQKIISGLRELLWKKLIKLPVSYFDTNASGETVSRVTNDTMVVKELITTHISGFITGIISVIGSLTILFIMNWKLTLLVLVVVPLAALILVPIGRKMFSISRETQDETARFTGLLNQILPEIRLVKASNAEDVEYGRGKMGISSLFKLGVREAKVQSLVGPLISLVLMAALVAVIGYGGMQVSSGELTAGALVAFILYLFQIIMPMGQITTFFTQLQKSIGATERMIEILAEEEEDTVTGKQIENAHLPIQLDRVSFGYKPDQLILKEVSAVIEAGKVTAIVGPSGGGKTTLFKLLERFYSPTAGTIRLGDEPVDTYSLESWREHIGYVSQESPLMSGTIRENICYGLERDVTDAEIEKAAEMAYALNFIKELPNQFDTEVGERGIMLSGGQRQRIAIARALLRNPSILMLDAATSSLDSQSEKSVQQALEVLMEGRTTIVIAHRLSTVVDADQLLFVEKGEITGRGTHHELMASHGLYRDFAEQQLKMNADLENKAG",,,binds
